Measured values: paper PMC8096218, “Global RNA profiles show target selectivity and physiological effects of peptide-delivered antisense antibiotics” (Nucleic Acids Research, 2021)

System: acpP mRNA
Test: Northern blot of acpP transcript levels after PNA treatment
Type: cell-based, Salmonella enterica serovar Typhimurium
Settings: 5 μM, 5, 10 or 15 min, 10^6 cfu/ml; two biological replicates
Method: For northern blotting, equal RNA amounts were used for gel electrophoresis (10 μg in Figure 4B; 100–150 ng in Figure 4E) and subsequent transfer to Hybond+ membranes (GE Healthcare Life Sciences). After crosslinking (0,12 J/cm^2), membranes were blocked using ROTI®Hybri-Quick (Roth) and incubated with RNA-specific digoxigenin (DIG; Roche)- or radioactively-labeled (5′ ^32P-labeling ([28])) oligonucleotides. In vitro transcription (MEGAscript T7 polymerase, Ambion), DIG-labeling of probes and northern blot detection was performed according to the manufacturer's instructions. Sequences of all the oligonucleotides (purchased from Eurofins Genomics or Sigma) employed for northern blot probe generation or RT-qPCR are listed in Supplementary Table S2. Signals were visualized on a phosphorimager (Typhoon FLA 7000, GE Healthcare) for radioactive probes, or using an ImageQuant (LAS 4000, GE Healthcare) for DIG-labeled probes.
Bacterial overnight cultures were diluted 1:100 in fresh MHB and grown to OD600 0.5. […]
Figure 4. […] In brief, 10^9 cfu were pelleted for the isolation of RNA, which was subsequently analyzed using (A) a denaturing polyacrylamide gel (1 μg/lane) and (B) northern blotting (10 μg/lane). […] (B) Transcript levels of two sRNAs, SroC and SdhX (SdhX1, SdhX2), and the loading control 5S were detected using sequence specific radioactive-labeled probes. […]

“KFFKFFKFFK [KFF-acpP, KFF peptide conjugated to 10-mer antisense PNA against the translational start site of acpP]” was tested. Which “acpP mRNA levels (northern blot)” value did it give?
Its value is “rapid decrease of acpP mRNA levels from 5 min post treatment onwards”.
